Data published in PubChem BioAssay AID493003 (Sanford-Burnham Center for Chemical Genomics, 2010).
Activity calls are given as the source filed them. How the calls were made is not given here.

Tested on: S. cerevisiae tim10-1 mutant growth, luminescence
Assay: growth inhibitors of tim10-1 mutant yeast, dose response, luminescence, S. cerevisiae, uHTS hits (AID 493003);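 further: yeast growth measured after about 22 hours at 25 °C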

c1ccc(Nc2cccc(Nc3ccccc3)n2)cc1
IC50: 14.2 µM

COc1ccc(C/C(=N\OC(C)=O)c2ccc(OC)cc2)cc1
IC50: 25.7 µM

C/C(=N\NC(=O)c1cc(-c2cccs2)nc2ccccc12)c1ccccn1
IC50: 28.7 µM

Cc1ccc(N2C(=O)CC(Sc3cccs3)C2=O)cc1 (configuration not stated)
IC50: 24 µM

Cc1cc(N/N=C/c2ccccc2O)nc(-c2ccccc2O)n1
IC50: 76.6 µM

O=[N+]([O-])c1cc(/C=N/O)ccc1Oc1ccccc1Cl
IC50: 33.9 µM

CN(C)CCCN1c2ccccc2CCc2ccc(Cl)cc21
IC50: 37.8 µM

O=C(Nc1ccccc1Cl)C(Cl)C(=O)c1ccccc1 (configuration not stated)
IC50: 70.1 µM

CC(C)(C)c1ccc(CN2N=Nc3ccccc3S2(=O)=O)cc1
IC50: 6.1 µM

Cc1nn(C)c(C)c1NC(=O)Nc1ccc(Cl)c(Cl)c1
IC50: 22.4 µM

S=C(NCCc1ccccc1)Nc1ccc(Nc2ccccc2)cc1
IC50: 24.7 µM

Clc1ccc(-c2nc3cnccn3c2Nc2ccc3c(c2)OCO3)cc1
IC50: 29.9 µM

Cc1nn(Cc2c(F)c(F)c(F)c(F)c2F)c(C)c1NC(=O)c1ccc(COc2ccccc2Cl)o1
IC50: 60.3 µM

Cc1sc(NC(=O)c2ccco2)c(C(c2cccnc2)N2CCCC2)c1C (configuration not stated)
IC50: 17.2 µM

O/N=C(\c1ccc(Cl)cc1Cl)c1ncc(C(F)(F)F)cc1Cl
IC50: 19.6 µM

CSc1ccc(S(=O)(=O)NCc2ccccc2Cl)cc1
IC50: 22.4 µM

Clc1ccccc1Nc1nnc(-c2ccncc2)s1
IC50: 52.7 µM

CCOC(=O)c1sc2ncnc(NCc3ccco3)c2c1C
IC50: 30.5 µM

N#CC(C#N)=c1ccc2c(c1)NC1(CCCCC1)N=2
IC50: 30.5 µM

Oc1ccc(-c2nccc(-c3ccc(Cl)cc3Cl)n2)cc1
IC50: 37.1 µM

COc1ccc(Br)cc1[C@H]1[C@H]2C=CC[C@@H](C)[C@@H]2C(=O)N1Cc1ccccc1
IC50: 7.88 µM

C=Cc1ncc(OC)c2c1[nH]c1ccccc12
IC50: 25 µM

C/C=C(/C(=C/C)c1ccc(O)cc1)c1ccc(O)cc1
IC50: 25.6 µM

CCCN(Cc1ccccc1)C(=S)Nc1cccc(C(F)(F)F)c1
IC50: 66.1 µM

O=C(NC(=S)Nc1cccc(C(F)(F)F)c1)c1csnn1
IC50: 26 µM

CCOC(=O)c1c(OCC)[nH]c2c1cc(O)c1ccccc12
IC50: 17.9 µM

FC(F)(F)c1ccc(NC(=S)NC2CCCCC2)cc1
IC50: 27.7 µM

O=C(NCCC1=CCCCC1)NC12CC3CC(CC(C3)C1)C2
IC50: 50.7 µM

O=[N+]([O-])/C(C(Cl)=C(Cl)Cl)=C(/Sc1ccccc1)N1CCCCC1
IC50: 38.7 µM

COc1ccc(-c2cc(C3CCN(C(=O)OC(C)(C)C)CC3)[nH]n2)cc1
IC50: 51.2 µM

COc1ccc(Br)c(-c2nnc(CS(=O)(=O)c3ccccc3)o2)c1
IC50: 28.4 µM

Cc1nn2c(c1-c1ccc(Cl)cc1)N=C(c1ccco1)CC2c1ccccc1 (configuration not stated)
IC50: 23.2 µM

O=C(Nc1ccon1)c1cc2c(s1)CCCCCC2
IC50: 39.2 µM

CCN(CC)c1ncnc2c1ncn2Cc1c(Cl)cccc1Cl
IC50: 45.9 µM

O=C(c1ccc2ncsc2c1)N1CCN(c2cccc(C(F)(F)F)c2)CC1
IC50: 38.4 µM

Cc1ccc(NC2=C/C(=N\S(=O)(=O)c3cccs3)c3ccccc3C2=O)c(C)c1
IC50: 3.94 µM

Cc1ccc(O)c(-c2cc(-c3cccc(F)c3)n[nH]2)c1
IC50: 97.9 µM

CC(C)(C)c1ccc(C(=O)c2cn[nH]c2-c2ccccc2O)cc1
IC50: 52 µM

CCCCN1/C(=C/c2ccc3ccccc3[n+]2CC)Sc2ccccc21
IC50: 19.2 µM

S=c1[nH]nc(Nc2ccc(Cl)cc2)s1
IC50: 20.8 µM

CCn1nccc1C(=O)Nc1ccc(Cl)c(Cl)c1
IC50: 24.3 µM

O=C1CC(N2CC=C(c3ccccc3)CC2)C(=O)N1c1ccc(F)cc1 (configuration not stated)
IC50: 14.7 µM

Cc1ccccc1C(=O)NC(=S)Nc1ccccc1N1CCCC1
IC50: 17.3 µM

O=C1c2cccc3cccc(c23)C(=O)N1CCN1CCN(CC(O)COc2ccc3ccccc3c2)CC1 (configuration not stated)
IC50: 19.3 µM

Cc1ccc(NC(=S)NNC(=O)CSc2nc3ccccc3c(=O)n2-c2ccc(C)cc2)cc1
IC50: 44.9 µM

COc1ccc(N2C(=O)CC(Sc3nnc(-c4ccccc4)o3)C2=O)cc1 (configuration not stated)
IC50: 47.2 µM

O=[N+]([O-])c1ccccc1N/N=C/c1c[nH]c2ccccc12
IC50: 13.8 µM

N#C/C(=C/c1ccc(N2CCCCCC2)o1)c1cccc(F)c1
IC50: 14.9 µM

Cc1ccc(NC(=S)/N=C(\N)Nc2nc(C)c3cc(C)ccc3n2)c(C)c1
IC50: 12.7 µM

CCOC(=O)C1CCN(C2CC(=O)N(c3cccc(Cl)c3)C2=O)CC1 (configuration not stated)
IC50: 37.2 µM

Cc1nn(Cc2ccc(Cl)cc2)c(C)c1NC(=O)c1c(-c2ccccc2)noc1C
IC50: 76.1 µM

CC1=C/C(=N\OS(=O)(=O)c2ccccc2)C=CC1=O
IC50: 0.46 µM

NNc1nc(-c2ccccc2)c2cc(Br)ccc2n1
IC50: 10.1 µM

O=C(O)c1ccc(C=C(c2nc3ccccc3s2)c2nc3ccccc3s2)cc1
IC50: > 100 µM (inactive)

O=C(NNC(=S)Nc1ccc(Cl)cc1)c1ccccc1OC(F)F
IC50: 12 µM

CCN1C(=O)/C(=C/c2c(C)nn(C)c2C)SC1=S
IC50: 24.4 µM

COC(=O)COc1ccc(S(=O)(=O)N2CCN(c3ccccc3F)CC2)cc1C
IC50: > 100 µM (inactive)

C=CCN(CC=C)S(=O)(=O)c1ccc(NC(=O)COc2ccccc2OC)cc1
IC50: 77.3 µM

CCOC(=O)c1ccc(NC(=O)CC2OCCN(CC)C2=O)cc1 (configuration not stated)
IC50: 9.9 µM

Cc1nn(-c2ccc(Cl)cc2)c2[nH]c(CCl)cc(=O)c12
IC50: 33.5 µM

Cc1ccccc1/C=C/C(=O)c1ccc([N+](=O)[O-])o1
IC50: 3.76 µM

CN(C)CCCN(C(=O)c1cc2cc([N+](=O)[O-])ccc2s1)c1nc2cc3c(cc2s1)OCCO3
IC50: 13.7 µM

COc1ccc(-c2sc3cc4c(cc3c2C#CC2(N)CCCCC2)OCO4)cc1
IC50: 12.5 µM

COc1ccc(-c2noc(C3CCCN(C(=O)CCc4ccccc4)C3)n2)cc1 (configuration not stated)
IC50: 17.9 µM

O=C(NNC(=S)Nc1cccc(C(F)(F)F)c1)c1cccc(Cl)c1
IC50: 10 µM

COc1cc(C(=O)Nc2ccc(Cl)c(C(F)(F)F)c2)cc(OC)c1OC
IC50: 16.8 µM

Cc1nc2scc(C)n2c(=O)c1S(=O)(=O)N1CCN(c2cccc(C(F)(F)F)c2)CC1
IC50: 47.3 µM

O=C(Nc1cccnc1)c1cn(-c2ccccc2)nc1-c1cccs1
IC50: 13.2 µM

N#C/C(=N/Nc1ccc(OC(F)(F)F)cc1)C(N)=S
IC50: 5.24 µM

COc1ccc(-c2cc(C(=O)N3CCN(c4ncccn4)CC3)c3ccccc3n2)c(OC)c1
IC50: 28.5 µM

N/C(=C\C(=O)c1cc(Cl)ccc1O)C(Cl)(Cl)Cl
IC50: 47.3 µM

Cc1ccccc1NC1=NC(=S)N(c2ccccc2)C12CCCCC2
IC50: 14.7 µM

CSc1ccc2nnc(-c3cccc(F)c3)n2n1
IC50: 29.6 µM

Cc1cc(Cl)ccc1OCC(=O)Nc1nc(-c2cccs2)cs1
IC50: > 100 µM (inactive)

Cc1ccsc1C1Nc2ccccc2-c2nc3ccccc3n21 (configuration not stated)
IC50: 28.5 µM

Cc1cc(Nc2nc(Cl)c(Cl)cc2Cl)n(-c2ccccc2)n1
IC50: 27.1 µM

COC(=O)c1ccc(NC(=O)CN2CCN(S(=O)(=O)c3ccc(Br)cc3)CC2)cc1
IC50: 61.5 µM

Cc1ccc(-c2cc(-c3cccc(F)c3)n[nH]2)c(O)c1
IC50: 40.4 µM

CC(C)C(=O)N1CCN(c2ccccc2NC(=O)c2ccc([N+](=O)[O-])o2)CC1
IC50: 11.5 µM

COc1ccc(Sc2cnn(-c3ccccc3)c(=O)c2Cl)cc1
IC50: 35.6 µM

COC(=O)c1c(N2C(=O)CC(Sc3ccccc3C(=O)O)C2=O)sc2c1CCCC2 (configuration not stated)
IC50: 12.2 µM

Cc1ccc(NC(=O)c2ccc([N+](=O)[O-])o2)c(C)c1
IC50: 15.7 µM
